Measured values as given in PubChem BioAssay AID588653 (The Scripps Research Institute Molecular Screening Center, 2011).

Each molecule was assayed against Epidermal growth factor receptor (Homo sapiens) (UniProt P00533) (assay: p-EGFR level shift in colorectal carcinoma cells – HT29 cells, chemiluminescent western blot, powder samples, counter-screen for KLF5 inhibitor project, late-stage follow-up (AID 588653)). Settings: 24 h, at 10 µM.
Chain of Epidermal growth factor receptor (Homo sapiens) (P00533 whole entry, looked up): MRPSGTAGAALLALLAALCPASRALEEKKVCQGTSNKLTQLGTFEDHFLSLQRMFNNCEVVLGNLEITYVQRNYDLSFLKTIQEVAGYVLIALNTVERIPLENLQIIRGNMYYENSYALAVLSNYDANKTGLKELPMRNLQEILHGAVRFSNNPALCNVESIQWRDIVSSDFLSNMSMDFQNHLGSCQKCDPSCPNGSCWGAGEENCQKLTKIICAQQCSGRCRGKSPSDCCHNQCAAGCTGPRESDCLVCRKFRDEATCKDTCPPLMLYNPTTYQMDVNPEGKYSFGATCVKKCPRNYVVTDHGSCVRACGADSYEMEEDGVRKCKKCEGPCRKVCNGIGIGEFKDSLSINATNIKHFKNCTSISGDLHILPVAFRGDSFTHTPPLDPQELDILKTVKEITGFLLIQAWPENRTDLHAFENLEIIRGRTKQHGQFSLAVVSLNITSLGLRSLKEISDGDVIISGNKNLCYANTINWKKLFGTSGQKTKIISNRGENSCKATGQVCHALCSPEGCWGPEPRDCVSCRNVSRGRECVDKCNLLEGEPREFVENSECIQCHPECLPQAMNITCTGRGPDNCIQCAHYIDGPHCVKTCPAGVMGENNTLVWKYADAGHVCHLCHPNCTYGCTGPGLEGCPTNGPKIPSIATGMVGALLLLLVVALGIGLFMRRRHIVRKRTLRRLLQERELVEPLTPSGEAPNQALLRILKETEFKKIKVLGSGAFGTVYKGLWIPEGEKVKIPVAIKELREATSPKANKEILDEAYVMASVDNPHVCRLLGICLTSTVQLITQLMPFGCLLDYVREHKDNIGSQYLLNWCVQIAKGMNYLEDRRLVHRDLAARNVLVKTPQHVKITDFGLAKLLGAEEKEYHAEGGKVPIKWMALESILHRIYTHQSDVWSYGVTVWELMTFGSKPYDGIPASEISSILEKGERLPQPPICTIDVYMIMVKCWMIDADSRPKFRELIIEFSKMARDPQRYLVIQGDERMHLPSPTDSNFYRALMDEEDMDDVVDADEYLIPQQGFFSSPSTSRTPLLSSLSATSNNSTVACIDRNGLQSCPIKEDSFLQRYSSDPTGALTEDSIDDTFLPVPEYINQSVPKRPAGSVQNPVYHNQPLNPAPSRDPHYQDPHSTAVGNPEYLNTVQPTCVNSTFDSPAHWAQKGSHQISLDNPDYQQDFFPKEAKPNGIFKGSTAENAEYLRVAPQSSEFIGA

Row | inhibition | SMILES
1 | -130% | CN(C(=O)CNC(=O)/C=C/c1cccc(Cl)c1)C1CCS(=O)(=O)C1 (stereo not drawn)
2 | -116% | CN(C(=O)CNC(=O)/C=C/c1cccc(Cl)c1)C1CCS(=O)(=O)CC1
3 | -47.5% | CN(C(=O)COC(=O)/C=C/c1cccc([N+](=O)[O-])c1)C1CCS(=O)(=O)C1 (stereo not drawn)
